From US5631354A, “5-O-desosaminylerythronolide derivatives” (Taisho Pharmaceutical Co., Ltd., priority 1991, dated 1997)
≈ marks a conversion by molar mass, not a printed value. Like-named read-outs stand apart in the source and are kept apart here.

Legend:
Assay in all cases: in vitro antibacterial activity (MIC measuring method of Japanese Chemotherapeutic Association)
Type in all cases: cell-based
S. aureus B1 = details: Staphylococcus aureus
Description: (§1) The in vitro antibacterial activity of the compounds of the present invention against various test bacteria was determined according to the MIC measuring method of Japanese Chemotherapeutic Association by using a sensitive disc media (available from Eiken Chemical Co.). 6-O-methylerythromycin A was used as a reference agent in Table 1, and erythromycin A in Table 2.

S. epidermides IID 866 = details: read-out: MIC value (minimum inhibitory concentration)
Description: as §1

E. faecalis CSJ 1212 = details: Enterococcus faecalis
Description: as §1

S. aureus Smith 4 = details: Staphylococcus aureus, SMITH4, sensitive disc media, read-out: MIC value (minimum inhibitory concentration)
Description: as §1

S. aureus 209P-JC = details: Staphylococcus aureus, read-out: MIC value (minimum inhibitory concentration)
Description: as §1

S. aureus J-109 = details: Staphylococcus aureus, J109, sensitive disc media, read-out: MIC value (minimum inhibitory concentration)
Description: as §1

S. aureus C1 = details: Staphylococcus aureus
Description: as §1

[1] = B1, read-out: MIC value (minimum inhibitory concentration)
[2] = CSJ1212, read-out: MIC value (minimum inhibitory concentration)
[3] = C1, read-out: MIC value (minimum inhibitory concentration)
[4] = CSJ1212, E. faecalis CSJ 1212, sensitive disc media, read-out: MIC value (minimum inhibitory concentration)
[5] = S. aureus 209P-JC, sensitive disc media

| Structure (SMILES) | MIC (S. aureus B1; [1]) | MIC (S. epidermides IID 866) | MIC (E. faecalis CSJ 1212; [2]) | MIC (S. aureus Smith 4) | MIC (S. aureus 209P-JC; 209P) | MIC (S. aureus J-109) | MIC (S. aureus C1; [3]) | MIC (S. aureus B1; S. aureus B1, sensitive disc media, read-out: MIC value (minimum inhibitory concentration)) | MIC (E. faecalis CSJ 1212; [4]) | MIC (S. aureus 209P-JC; [5]) | MIC (S. aureus C1; S. aureus C1, sensitive disc media, read-out: MIC value (minimum inhibitory concentration)) |
| --- | --- | --- | --- | --- | --- | --- | --- | --- | --- | --- | --- |
| CC[C@H]1OC(=O)[C@H](C)[C@@H](O[C@H]2C[C@@](C)(OC)[C@@H](O)[C@H](C)O2)[C@H](C)[C@@H](O[C@@H]2O[C@H](C)C[C@H](N(C)C)[C@H]2O)[C@](C)(O)C[C@@H](C)C(=O)[C@H](C)[C@@H](O)[C@]1(C)O [erythromycin A, reference compound] | > 100 µg/mL | 0.1 µg/mL (≈ 0.136 µM) | 0.78 µg/mL (≈ 1.06 µM) | 0.2 µg/mL (≈ 0.273 µM) | 0.1 µg/mL (≈ 0.136 µM) | > 100 µg/mL | > 100 µg/mL |  |  |  |  |
| CC[C@H]1OC(=O)[C@H](C)[C@@H](OC(=O)Cc2ccc([N+](=O)[O-])cc2)[C@H](C)[C@@H](O[C@@H]2O[C@H](C)C[C@H](N(C)C)[C@H]2O)[C@](C)(OC)C[C@@H](C)C(=O)[C@H](C)[C@H]2OC(=O)O[C@@]21C [Example 9, 3-O-(4-nitrophenyl)acetyl-5-O-desosaminyl-6-O-methylerythronolide A 11,12 cyclic carbonate] |  | 0.05 µg/mL (≈ 0.0642 µM) |  | 0.05 µg/mL (≈ 0.0642 µM) |  | > 100 µg/mL | 0.05 µg/mL (≈ 0.0642 µM) | 0.2 µg/mL (≈ 0.257 µM) | 0.05 µg/mL (≈ 0.0642 µM) | 0.025 µg/mL (≈ 0.0321 µM) |  |
| CC[C@H]1OC(=O)[C@H](C)[C@@H](OC(=O)Cc2ccc([N+](=O)[O-])cc2[N+](=O)[O-])[C@H](C)[C@@H](O[C@@H]2O[C@H](C)C[C@H](N(C)C)[C@H]2O)[C@](C)(OC)C[C@@H](C)C(=O)[C@H](C)[C@@H](O)[C@]1(C)O [Example 3, 3-O-(2,4-dinitrophenyl)acetyl-5-O-desosaminyl-6-O-methylerythronolide A] | 0.2 µg/mL (≈ 0.251 µM) | 0.1 µg/mL (≈ 0.125 µM) | 0.1 µg/mL (≈ 0.125 µM) | 0.1 µg/mL (≈ 0.125 µM) | 0.05 µg/mL (≈ 0.0627 µM) | > 100 µg/mL | 0.1 µg/mL (≈ 0.125 µM) |  |  |  |  |
| CC[C@H]1OC(=O)[C@H](C)[C@@H](OC(=O)Cc2ccc([N+](=O)[O-])cc2)[C@H](C)[C@@H](O[C@@H]2O[C@H](C)C[C@H](N(C)C)[C@H]2O)[C@](C)(O)C[C@@H](C)C(=NO)[C@H](C)[C@H]2OC(=O)O[C@@]21C [Example 15, 3-0-(4-nitrophenyl)acetyl-5-O-desosaminylerythronolide A 9-oxime 11,12-cyclic carbonate] | 0.1 µg/mL (≈ 0.128 µM) | 0.05 µg/mL (≈ 0.0641 µM) |  | 0.05 µg/mL (≈ 0.0641 µM) | 0.05 µg/mL (≈ 0.0641 µM) | > 100 µg/mL | 0.78 µg/mL (≈ 1 µM) |  | 0.05 µg/mL (≈ 0.0641 µM) |  |  |
| CC[C@H]1OC(=O)[C@H](C)[C@@H](O[C@H]2C[C@@](C)(OC)[C@@H](O)[C@H](C)O2)[C@H](C)[C@@H](O[C@@H]2O[C@H](C)C[C@H](N(C)C)[C@H]2O)[C@](C)(OC)C[C@@H](C)C(=O)[C@H](C)[C@@H](O)[C@]1(C)O [6-O-methylerythromycin A, reference compound] | > 100 µg/mL | 0.1 µg/mL (≈ 0.134 µM) | 0.78 µg/mL (≈ 1.04 µM) | 0.1 µg/mL (≈ 0.134 µM) | 0.05 µg/mL (≈ 0.0668 µM) | > 100 µg/mL |  |  |  |  | 25 µg/mL (≈ 33.4 µM) |
| CC[C@H]1OC(=O)[C@H](C)[C@@H](OC(=O)Cc2ccc([N+](=O)[O-])cc2)[C@H](C)[C@@H](O[C@@H]2O[C@H](C)C[C@H](N(C)C)[C@H]2O)[C@](C)(OC)C[C@@H](C)C(=NO)[C@H](C)[C@H]2OC(=O)O[C@@]21C [Example 1, 3-O-(4-nitrophenyl)acetyl-5-O-desosaminyl-6-O-methylerythronolide A 9-oxime 11,12cyclic carbonate] | 0.1 µg/mL (≈ 0.126 µM) | 0.05 µg/mL (≈ 0.063 µM) |  | 0.05 µg/mL (≈ 0.063 µM) |  | > 100 µg/mL | 0.1 µg/mL (≈ 0.126 µM) |  | 0.05 µg/mL (≈ 0.063 µM) | 0.025 µg/mL (≈ 0.0315 µM) |  |
